Key:
[1] = Mouse pharmacokinetics; assay type: in vivo; design: concentration or dose not given beside the values; settings: Balb/c male mice, blood samples 15 to 1140 min, LC-MS/MS
Description: To evaluate the pharmacokinetics test, the invented compounds (from I-25 to I-1171) were determined as follows. Blood samples are collected at 15, 30, 60, 120, 240, 480, 1140 min. Quantification is by using a LC-MS/MS method specific to the selected compound. Pharmacokinetics parameters are calculated using WinNonLinnon compartmental analysis software.

[2] = tested on: MDA-MB-436 breast cancer cell line; experiment: Cell viability assay (MDA-MB-436); assay type: cell-based; settings: Homo sapiens, 144 h; MDA-MB-436 cells, treated 6 days
In short: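 MDA-MB-436 breast cancer cells in DMEM/F12 with 10% FBS, treated 24 h after seeding with graded compound concentrations for 6 days at 37 °C, 5% CO2, medium changed every 3 days. Viability read with a fluorescence reagent; IC50 derived.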

[3] = tested on: Capan-1 pancreatic cancer cell line; experiment: Cell viability assay (Capan-1); assay type: cell-based; settings: Homo sapiens, 240 h; Capan-1 cells, treated 10 days
Description: 3. Cell Viability Assay (Capan-1)
Cell viability assay was performed by using Capan-1 cell line to measure cytotoxicity of compounds in the present invention. Capan-1 pancreatic cancer cell line was seeded into 96-well plates at 37° C. under 5% CO2 atmosphere using IMDM (Sigma) containing 10% FBS (Hyclone). After 24 hr incubation, cells were treated with the invented compounds at various concentrations for 10 days. After 7-day incubation, the medium was changed. 10 days later, A fluorescence reagent was used to determine the IC50 values.

[4] = tested on: LNCaP prostate cancer cell line; experiment: Cell viability assay (LNCaP); assay type: cell-based; settings: Homo sapiens, 264 h; LNCaP cells, treated 11 days
Description: 4. Cell Viability Assay (LNCaP)
Cell viability assay was performed by using LNCaP cell line to measure cytotoxicity of compounds in the present invention. LNCaP prostate cancer cell line was seeded into 96-well plates at 37° C. under 5% CO2 atmosphere using RPMI-1640 (Hyclone) containing 10% FBS (Hyclone). After 24 hr incubation, cells were treated with the invented compounds at various concentrations for 11 days. The medium was changed every 3 to 4 day. 11 days later, A fluorescence reagent was used to determine the IC50 values.

| AUC [1] | IC50 [2] | IC50 [3] | IC50 [4] | Structure (SMILES) |
| --- | --- | --- | --- | --- |
| 831 ng·h/mL | 5 to 50 nM | 300 to 1000 nM | – | O=C(c1cc(Cc2n[nH]c(=O)c3ccccc23)ccc1F)N1CC(NC2CCC2)C1 [Compound I-25, 4-(3-(3-(cyclobutylamino)azetidine-1-carbonyl)-4-fluorobenzyl)phthalazin-1(2H)-one] |
| 673 ng·h/mL | ≤ 5 nM | 50 to 300 nM | – | O=C(c1cc(Cc2n[nH]c(=O)c3ccccc23)ccc1F)N1CC(CNC2CC2)C1 [Compound I-143, 4-(3-(3-((cyclopropylamino)methyl)azetidine-1-carbonyl)-4-fluorobenzyl)phthalazin-1(2H)-one] |
| 521 ng·h/mL | 50 to 300 nM | – | – | O=C(c1cc(Cc2n[nH]c(=O)c3ccccc23)ccc1F)N1CC[C@@H](NC2CCC2)C1 [Compound I-30, (R)-4-(3-(3-(cyclobutylamino)pyrrolidine-1-carbonyl)-4-fluorobenzyl)phthalazin-1(2H)-one] |
| 169 ng·h/mL | ≤ 5 nM | 300 to 1000 nM | > 1000 nM | C#CCNCC1CN(C(=O)c2cc(Cc3n[nH]c(=O)c4ccccc34)ccc2F)C1 [Compound I-149, 4-(4-fluoro-3-(3-((prop-2-yn-1-ylamino)methyl)azetidine-1-carbonyl)benzyl)phthalazin-1(2H)-one] |
| 153 ng·h/mL | 5 to 50 nM | – | – | O=C(c1cc(Cc2n[nH]c(=O)c3ccccc23)ccc1F)N1CC[C@@H](N2CCC2)C1 [Compound I-135, (R)-4-(3-(3-(azetidin-1-yl)pyrrolidine-1-carbonyl)-4-fluorobenzyl)phthalazin-1(2H)-one] |
| 193 ng·h/mL | 5 to 50 nM | 300 to 1000 nM | – | O=C(c1cc(Cc2n[nH]c(=O)c3ccccc23)ccc1F)N1CC(CN2CCCCC2)C1 [Compound I-141, 4-(4-fluoro-3-(3-(piperidin-1-ylmethyl)azetidine-1-carbonyl)benzyl)phthalazin-1(2H)-one] |
| 472 ng·h/mL | ≤ 5 nM | – | – | O=C(c1cc(Cc2n[nH]c(=O)c3ccccc23)ccc1F)N1CC(CNC2CCC2)C1 [Compound I-148, 4-(3-(3-((cyclobutylamino)methyl)azetidine-1-carbonyl)-4-fluorobenzyl)phthalazin-1(2H)-one] |
| 3350 ng·h/mL | 5 to 50 nM | 300 to 1000 nM | – | O=C(c1cc(Cc2n[nH]c(=O)c3ccccc23)ccc1F)N1CC(NC2CC2)C1 [Compound I-26, 4-(3-(3-(cyclopropylamino)azetidine-1-carbonyl)-4-fluorobenzyl)phthalazin-1(2H)-one] |
| 475 ng·h/mL | 5 to 50 nM | – | – | O=C(c1cc(Cc2n[nH]c(=O)c3ccccc23)ccc1F)N1CC(N2CCC2)C1 [Compound I-75, 4-(3-([1,3′-biazetidine]-1′-carbonyl)-4-fluorobenzyl)phthalazin-1(2H)-one] |
| 88.8 ng·h/mL | 5 to 50 nM | 300 to 1000 nM | – | O=C(c1cc(Cc2n[nH]c(=O)c3ccccc23)ccc1F)N1CC(CN2CCC2)C1 [Compound I-142, 4-(3-(3-(azetidin-1-ylmethyl)azetidine-1-carbonyl)-4-fluorobenzyl)phthalazin-1(2H)-one] |
| 295 ng·h/mL | ≤ 5 nM | 300 to 1000 nM | – | O=C(c1cc(Cc2n[nH]c(=O)c3ccccc23)ccc1F)N1CC(CN2CCCC2)C1 [Compound I-140, 4-(4-fluoro-3-(3-(pyrrolidin-1-ylmethyl)azetidine-1-carbonyl)benzyl)phthalazin-1(2H)-one] |
| 510 ng·h/mL | ≤ 5 nM | – | – | O=C(c1cc(Cc2n[nH]c(=O)c3ccccc23)ccc1F)N1CC[C@@H](Nc2ncccn2)C1 [Compound I-120, (R)-4-(4-fluoro-3-(3-(Pyrimidin-2-ylamino)pyrrolidine-1-carbonyl)benzyl)phthalazin-1(2H)-one] |
| – | ≤ 5 nM | 300 to 1000 nM | – | CCC(C)NC1CN(C(=O)c2cc(Cc3n[nH]c(=O)c4ccccc34)ccc2F)C1 (stereo not drawn) [Compound I-44, 4-(3-(3-(sec-butylamino)azetidine-1-carbonyl)-4-fluorobenzyl)phthalazin-1(2H)-one] |
| 1090 ng·h/mL | 5 to 50 nM | 300 to 1000 nM | > 1000 nM | CC(C)CNCC1CN(C(=O)c2cc(Cc3n[nH]c(=O)c4ccccc34)ccc2F)C1 [Compound I-146, 4-(4-fluoro-3-(3-((isobutylamino)methyl)azetidine-1-carbonyl)benzyl)phthalazin-1(2H)-one] |
| – | 5 to 50 nM | 300 to 1000 nM | – | CC(CO)NC1CN(C(=O)c2cc(Cc3n[nH]c(=O)c4ccccc34)ccc2F)C1 (stereo not drawn) [Compound I-36, 4-(4-fluoro-3-(3-((1-hydroxypropan-2-yl)amino)azetidine-1-carbonyl)benzyl)phthalazin-1(2H)-one] |
| – | 5 to 50 nM | 300 to 1000 nM | – | CCC(CC)NC1CN(C(=O)c2cc(Cc3n[nH]c(=O)c4ccccc34)ccc2F)C1 [Compound I-40, 4-(4-fluoro-3-(3-(pentan-3-ylamino)azetidine-1-carbonyl)benzyl)phthalazin-1(2H)-one] |
| 1250 ng·h/mL | ≤ 5 nM | 300 to 1000 nM | > 1000 nM | CCCCNC1CN(C(=O)c2cc(Cc3n[nH]c(=O)c4ccccc34)ccc2F)C1 [Compound I-53, 4-(3-(3-(butylamino)azetidine-1-carbonyl)-4-fluorobenzyl)phthalazin-1(2H)-one] |
| 567 ng·h/mL | 5 to 50 nM | 300 to 1000 nM | > 1000 nM | COC[C@@H](C)NC1CN(C(=O)c2cc(Cc3n[nH]c(=O)c4ccccc34)ccc2F)C1 [Compound I-83, (R)-4-(4-fluoro-3-(3-((1-methoxypropan-2-yl)amino)azetidine-1-carbonyl)benzyl)phthalazin-1(2H)-one] |
| – | 50 to 300 nM | – | 5 to 50 nM | O=C(c1cc(Cc2n[nH]c(=O)c3ccccc23)ccc1F)N1CC[C@@H](Nc2ccc(C(F)(F)F)cn2)C1 [Compound I-131, (R)-4-(4-fluoro-3-(3-((5-(trifluoromethyl)pyridin-2-yl)amino)pyrrolidine-1-carbonyl)benzyl)phthalazin-1(2H)-one] |
| – | 5 to 50 nM | 300 to 1000 nM | – | O=C(c1cc(Cc2n[nH]c(=O)c3ccccc23)ccc1F)N1CC(NC2CC3CCC2C3)C1 (stereo not drawn) [Compound I-43, 4-(3-(3-(bicyclo[2.2.1]heptan-2-ylamino)azetidine-1-carbonyl)-4-fluorobenzyl)phthalazin-1(2H)-one] |
| – | 5 to 50 nM | 50 to 300 nM | – | O=C(c1cc(Cc2n[nH]c(=O)c3ccccc23)ccc1F)N1CC[C@@H](NC2CCCC2)C1 [Compound I-31, (R)-4-(3-(3-(cyclopentylamino)pyrrolidine-1-carbonyl)-4-fluorobenzyl)phthalazin-1(2H)-one] |
| 2250 ng·h/mL | ≤ 5 nM | 300 to 1000 nM | > 1000 nM | CC(C)CNC1CN(C(=O)c2cc(Cc3n[nH]c(=O)c4ccccc34)ccc2F)C1 [Compound I-35, 4-(4-fluoro-3-(3-(isobutylamino)azetidine-1-carbonyl)benzyl)phthalazin-1(2H)-one] |
